Experimental data from ChEMBL document CHEMBL5579818, “Identification of 3-(9H-carbazol-9-yl)-2-(1,3-dioxoisoindolin-2-yl)propanoic acids as promising DNMT1 inhibitors” (Eur J Med Chem, 2024).
pIC50, pKd: −log10 of the molar value. Calls of active or inactive are those of the source. The rule behind the calls is not given here.

Key:
[1] = target: T1, DNA (cytosine-5)-methyltransferase 1 (Homo sapiens, UniProt P26358); experiment: Inhibition of DNMT1 (unknown origin) using semi-methylated DNA substrate preincubated for 15 mins followed by substrate and [3H-SAM] addition and measured after 60 mins by microbeta scintillation counting assay
[2] = target: T1, DNA (cytosine-5)-methyltransferase 1; experiment: Binding affinity to human DNMT1 expressed in Escherichia coli assessed as response unit at 10 uM by SPR analysis
[3] = target: T1, DNA (cytosine-5)-methyltransferase 1; experiment: Inhibition of DNMT1 (unknown origin) at 250 uM using semi-methylated DNA substrate preincubated for 15 mins followed by substrate and [3H-SAM] addition and measured after 60 mins by microbeta scintillation counting assay relative to control; conditions: time 75.0 min
[4] = target: T1, DNA (cytosine-5)-methyltransferase 1; experiment: Binding affinity to human DNMT1 expressed in Escherichia coli assessed as binding constant by SPR analysis
K562 [5] = experiment: Antiproliferative activity against human K562 cells at 100 uM incubated for 48 hrs by MTT assay; assay type: functional
[6] = target: T1, DNA (cytosine-5)-methyltransferase 1; experiment: Binding affinity to human DNMT1 expressed in Escherichia coli assessed as equilibrium dissociation constant by SPR analysis
HeLa [7] = experiment: Antiproliferative activity against human HeLa cells at 100 uM incubated for 48 hrs by MTT assay; assay type: functional
K562 [8] = experiment: Antiproliferative activity against human K562 cells incubated for 48 hrs by MTT assay; assay type: functional, cell-based; conditions: K562, 48 h
SiHa [9] = experiment: Antiproliferative activity against human SiHa cells incubated for 48 hrs by MTT assay; assay type: functional, cell-based
HeLa [10] = experiment: Antiproliferative activity against human HeLa cells incubated for 48 hrs by MTT assay; assay type: functional, cell-based
A2780 [11] = experiment: Antiproliferative activity against human A2780 cells at 100 uM incubated for 48 hrs by MTT assay; assay type: functional
A2780 [12] = experiment: Antiproliferative activity against human A2780 cells incubated for 48 hrs by MTT assay; assay type: functional, cell-based; conditions: A2780, 48 h
SiHa [13] = experiment: Antiproliferative activity against human SiHa cells at 100 uM incubated for 48 hrs by MTT assay; assay type: functional
[14] = target: T1, DNA (cytosine-5)-methyltransferase 1; experiment: Inhibition of human DNMT1 at 500 uM relative to control

T1 sequence (P26358 whole entry): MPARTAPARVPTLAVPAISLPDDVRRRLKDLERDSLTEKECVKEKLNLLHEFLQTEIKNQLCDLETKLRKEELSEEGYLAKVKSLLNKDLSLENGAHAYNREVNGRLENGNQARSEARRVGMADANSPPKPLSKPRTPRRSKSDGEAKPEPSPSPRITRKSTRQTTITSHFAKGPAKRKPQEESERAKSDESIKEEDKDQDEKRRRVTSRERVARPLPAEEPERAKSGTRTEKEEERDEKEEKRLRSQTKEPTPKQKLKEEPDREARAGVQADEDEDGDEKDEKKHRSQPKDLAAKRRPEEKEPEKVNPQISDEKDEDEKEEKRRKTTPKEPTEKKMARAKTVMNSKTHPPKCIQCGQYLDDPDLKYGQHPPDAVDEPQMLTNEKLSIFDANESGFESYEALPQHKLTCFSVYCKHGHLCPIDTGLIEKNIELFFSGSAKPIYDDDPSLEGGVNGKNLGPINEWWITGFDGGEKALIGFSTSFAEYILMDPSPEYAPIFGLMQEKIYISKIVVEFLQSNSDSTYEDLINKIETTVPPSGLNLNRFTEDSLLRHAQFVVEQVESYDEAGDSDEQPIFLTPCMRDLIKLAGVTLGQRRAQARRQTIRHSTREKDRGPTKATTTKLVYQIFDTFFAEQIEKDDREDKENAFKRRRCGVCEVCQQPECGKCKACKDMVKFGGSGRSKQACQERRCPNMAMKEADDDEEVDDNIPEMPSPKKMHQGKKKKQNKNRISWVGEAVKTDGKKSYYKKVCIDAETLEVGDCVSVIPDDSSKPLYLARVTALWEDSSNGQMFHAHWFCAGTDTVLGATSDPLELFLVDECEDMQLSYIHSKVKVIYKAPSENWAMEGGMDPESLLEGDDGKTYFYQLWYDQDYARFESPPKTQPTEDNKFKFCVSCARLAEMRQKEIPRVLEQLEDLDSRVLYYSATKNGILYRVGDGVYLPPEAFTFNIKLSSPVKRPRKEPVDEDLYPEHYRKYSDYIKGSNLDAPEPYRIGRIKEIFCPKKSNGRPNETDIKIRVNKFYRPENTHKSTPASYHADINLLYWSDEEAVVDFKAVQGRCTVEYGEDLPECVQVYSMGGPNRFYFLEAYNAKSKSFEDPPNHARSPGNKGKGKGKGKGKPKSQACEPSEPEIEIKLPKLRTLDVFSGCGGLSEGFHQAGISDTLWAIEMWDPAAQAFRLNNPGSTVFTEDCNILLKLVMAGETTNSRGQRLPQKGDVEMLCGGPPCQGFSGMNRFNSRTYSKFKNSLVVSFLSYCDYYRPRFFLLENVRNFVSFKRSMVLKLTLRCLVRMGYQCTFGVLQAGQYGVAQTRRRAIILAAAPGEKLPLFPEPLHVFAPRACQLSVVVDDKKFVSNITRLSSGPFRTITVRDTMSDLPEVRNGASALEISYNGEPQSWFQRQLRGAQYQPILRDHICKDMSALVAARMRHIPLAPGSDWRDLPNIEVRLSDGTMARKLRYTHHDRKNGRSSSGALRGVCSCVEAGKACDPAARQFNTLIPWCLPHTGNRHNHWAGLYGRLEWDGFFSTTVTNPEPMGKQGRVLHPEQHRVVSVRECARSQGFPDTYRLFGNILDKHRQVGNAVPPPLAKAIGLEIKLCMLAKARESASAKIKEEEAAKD

| Activity [2] | inhibition [3] [%] | SMILES | Activity (K562 [5]) [%] | Activity (HeLa [7]) [%] | Activity (A2780 [11]) [%] | Activity (SiHa [13]) [%] | further results |
| --- | --- | --- | --- | --- | --- | --- | --- |
|  |  | O=C(O)C(Cn1c2ccc(Br)cc2c2cc(Br)ccc21)N1C(=O)c2ccccc2C1=O (stereo in doubt; 7n-2) |  |  |  |  | pIC50 [1]: 4.42 |
| Active | > 75 | O=C(O)C(Cn1c2ccc(Br)cc2c2cc(Br)ccc21)N1C(=O)c2ccccc2C1=O (racemic) |  |  |  |  | Ka [4]: 34000 M⁻¹ s⁻¹ |
| 52.7 RU | > 75 | CC(C)(C)c1ccc2c(c1)c1cc(C(C)(C)C)ccc1n2CC(C(=O)O)N1C(=O)c2ccccc2C1=O (racemic) | 99 | 79 | 98 |  | pKd [6]: 6.08; pIC50 (K562 [8]): 4.65; pIC50 (SiHa [9]): 4.36; pIC50 (HeLa [10]): 4.22; pIC50 (A2780 [12]): 4.44 |
|  | < 50 | O=C(O)C(Cn1c2ccccc2c2cc(Br)ccc21)N1C(=O)c2ccccc2C1=O (racemic) | <5 | <5 | <5 | <5 |  |
|  |  | O=C(O)C(Cn1c2ccc(I)cc2c2cc(I)ccc21)N1C(=O)c2ccccc2C1=O (stereo in doubt; 7o-2) |  |  |  |  | pIC50 [1]: 4.37 |
| Active | > 75 | Cc1ccc2c(c1)c1cc(C)ccc1n2CC(C(=O)O)N1C(=O)c2ccccc2C1=O (racemic) |  |  |  |  |  |
| 25.1 RU | < 50 | O=C(O)C(Cn1c2ccccc2c2ccccc21)N1C(=O)c2ccccc2C1=O (racemic) | <5 | <5 | <5 | <5 | inhibition [14]: < 10% |
| Active | > 75 | O=C(O)C(Cn1c2cc(Br)ccc2c2ccc(Br)cc21)N1C(=O)c2ccccc2C1=O (racemic) |  |  |  |  |  |
|  | < 50 | O=C(O)C(Cn1c2ccccc2c2cc(I)ccc21)N1C(=O)c2ccccc2C1=O (racemic) | <5 | <5 | <5 | <5 |  |
